Test results reported in PubChem BioAssay (NCI).
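Where inhibition never reached the appropriate level, the endpoint shown equals the highest concentration tested. Otherwise, values were interpolated linearly from a five-concentration, 48-hour dose response in 96-well plates. TGI denotes the concentration required for complete inhibition of growth.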

Assays:
Test in all cases: NCI-60 cell line screen, 48 h
[1] = tested on: KM20L2 colon
[2] = tested on: HOP-18 NSCLC
[3] = tested on: XF 498 CNS
[4] = tested on: M19-MEL melanoma
[5] = tested on: RXF-631 renal
[6] = tested on: HCC-2998 colon
[7] = tested on: DMS 273 small cell lung
[8] = tested on: SNB-78 CNS
[9] = tested on: DMS 114 small cell lung
[10] = tested on: LXFL 529 NSCLC
[11] = tested on: SN12C renal
[12] = tested on: DLD-1 colon

Measured: TGI

C[C@]12CC[C@H](O)CC1=CC[C@@H]1C2CC[C@]2(C)C(=O)NC(=O)CC12 (some centres not stated)
> 100 µM: all assays above
